Experimental data taken from the supplement of paper PMC10307832.

Columns and labels:
Assay in all cases: relative viability (nuclei count vs DMSO), 5 days (fraction); higher = more cells survive
Dabrafenib + Trametinib = compound: CC(C)(C)c1nc(-c2cccc(NS(=O)(=O)c3c(F)cccc3F)c2F)c(-c2ccnc(N)n2)s1 [Dabrafenib] + CC(=O)Nc1cccc(-n2c(=O)n(C3CC3)c(=O)c3c(Nc4ccc(I)cc4F)n(C)c(=O)c(C)c32)c1 [Trametinib] (partner 0.02 µM)
Method in brief: (§1)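 Nuclei were stained with Hoechst during a one-step fixation (final 0.05% Triton X-100, 1% formaldehyde, 1 ug/ml Hoechst) carried out 5 days after dosing, then counted on 4× images. The cells, lung cancer lines in 1536-well plates, had been dosed by pin tool the day after seeding with one drug alone or a fixed anchor-drug dose plus five library-drug doses (not always all listed) in √10 steps. Relative viability is the nuclei count in treated wells divided by that in vehicle wells, and each value is the median of duplicate plates.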

Dabrafenib + Dasatinib = compound: CC(C)(C)c1nc(-c2cccc(NS(=O)(=O)c3c(F)cccc3F)c2F)c(-c2ccnc(N)n2)s1 [Dabrafenib] + Cc1nc(Nc2ncc(C(=O)Nc3c(C)cccc3Cl)s2)cc(N2CCN(CCO)CC2)n1 [Dasatinib] (partner 0.075 µM)
Method in brief: as §1

Dabrafenib + Phenformin = compound: CC(C)(C)c1nc(-c2cccc(NS(=O)(=O)c3c(F)cccc3F)c2F)c(-c2ccnc(N)n2)s1 [Dabrafenib] + N=C(N)NC(=N)NCCc1ccccc1 [Phenformin] (partner 250 µM)
Method in brief: as §1

Dabrafenib + AZD7762 = compound: CC(C)(C)c1nc(-c2cccc(NS(=O)(=O)c3c(F)cccc3F)c2F)c(-c2ccnc(N)n2)s1 [Dabrafenib] + NC(=O)Nc1cc(-c2cccc(F)c2)sc1C(=O)N[C@H]1CCCNC1 [AZD7762] (partner 0.2 µM)
Method in brief: as §1

Dabrafenib + Pemetrexed = compound: CC(C)(C)c1nc(-c2cccc(NS(=O)(=O)c3c(F)cccc3F)c2F)c(-c2ccnc(N)n2)s1 [Dabrafenib] + Nc1nc2[nH]cc(CCc3ccc(C(=O)N[C@@H](CCC(=O)O)C(=O)O)cc3)c2c(=O)[nH]1 [Pemetrexed] (partner 0.2 µM)
Method in brief: as §1

VX-702 + Dasatinib = compound: NC(=O)c1ccc(N(C(N)=O)c2c(F)cccc2F)nc1-c1ccc(F)cc1F [VX-702] + Cc1nc(Nc2ncc(C(=O)Nc3c(C)cccc3Cl)s2)cc(N2CCN(CCO)CC2)n1 [Dasatinib] (partner 0.075 µM)
Method in brief: as §1

## SW 900
Dabrafenib + Trametinib; first compound 0.009487 µM
  relative viability: 0.671
Dabrafenib + Trametinib; first compound 0.09487 µM
  relative viability: 1.04
Dabrafenib + Trametinib; first compound 0.3 µM
  relative viability: 0.93
Dabrafenib + Dasatinib; first compound 0.009487 µM
  relative viability: 0.581
Dabrafenib + Dasatinib; first compound 0.03 µM
  relative viability: 0.371
Dabrafenib + Dasatinib; first compound 0.3 µM
  relative viability: 0.705
Dabrafenib + Phenformin; first compound 0.009487 µM
  relative viability: 0.579
Dabrafenib + Phenformin; first compound 0.03 µM
  relative viability: 0.561
Dabrafenib + Phenformin; first compound 0.3 µM
  relative viability: 0.86
Dabrafenib + AZD7762; first compound 0.009487 µM
  relative viability: 0.578
Dabrafenib + AZD7762; first compound 0.09487 µM
  relative viability: 0.845
Dabrafenib + AZD7762; first compound 0.3 µM
  relative viability: 0.875
Dabrafenib + Pemetrexed; first compound 0.009487 µM
  relative viability: 0.494
Dabrafenib + Pemetrexed; first compound 0.09487 µM
  relative viability: 0.477
Dabrafenib + Pemetrexed; first compound 0.3 µM
  relative viability: 0.45
VX-702 + Dasatinib; first compound 0.02 µM
  relative viability: 0.541
VX-702 + Dasatinib; first compound 0.2 µM
  relative viability: 0.664
VX-702 + Dasatinib; first compound 0.6325 µM
  relative viability: 0.56
VX-702 + Dasatinib; first compound 2 µM
  relative viability: 0.818
